Assay results: PubChem BioAssay AID1963968 (Molecular Pharmacology Branch, DTP, NCI, 2024)

Test system: 945468-187-T-J3-PDC spheroids with HUVEC/MSC, viability
Assay: Anticancer human tumor 945468-187-T-J3-PDC patient-derived rectal carcinoma cell line growth inhibition [PI3K]
Conditions: for IC50: curve of first compound; for viability, T/C: stronger effect = lower value
How it was run: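 Multi-cell spheroids combine tumor cells with HUVEC and human MSCs, treated with targeted agents alone or with inavolisib, alpelisib, duvelisib or copanlisib. Concentrations fall in half-log steps from at or near clinical Cmax, or from 10 microM where Cmax is unknown; viability read-out.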

[1] = second compound 0.0316 µM, first compound 0.0316 µM
[2] = second compound 0.0316 µM, first compound 0.1 µM
[3] = second compound 0.0316 µM, first compound 0.316 µM
[4] = second compound 0.0316 µM, first compound 1 µM
[5] = second compound 0.0316 µM, first compound 3.16 µM
[6] = second compound 0.0316 µM, first compound 10 µM
[7] = second compound 0.1 µM, first compound 0.0316 µM
[8] = second compound 0.1 µM, first compound 0.1 µM
[9] = second compound 0.1 µM, first compound 0.316 µM
[10] = second compound 0.1 µM, first compound 1 µM
[11] = second compound 0.1 µM, first compound 3.16 µM
[12] = second compound 0.1 µM, first compound 10 µM
[13] = second compound 0.316 µM, first compound 0.0316 µM
[14] = second compound 0.316 µM, first compound 0.1 µM
[15] = second compound 0.316 µM, first compound 0.316 µM
[16] = second compound 0.316 µM, first compound 1 µM
[17] = second compound 0.316 µM, first compound 3.16 µM
[18] = second compound 0.316 µM, first compound 10 µM
[19] = second compound 1 µM, first compound 0.0316 µM
[20] = second compound 1 µM, first compound 0.1 µM
[21] = second compound 1 µM, first compound 0.316 µM
[22] = second compound 1 µM, first compound 1 µM
[23] = second compound 1 µM, first compound 3.16 µM
[24] = second compound 1 µM, first compound 10 µM
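Note: spheroids exposed to agents for 7 days before viability read.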
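Throughout, for viability, T/C: 100% = DMSO vehicle control viability.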

C#Cc1c(F)ccc2cc(O)cc(-c3ncc4c(N5CC6CCC(C5)N6)nc(OCC56CCCN5CC(F)C6)nc4c3F)c12 (centres undefined) + COc1c(OCCCN2CCOCC2)ccc2c3n(c(=NC(=O)c4cnc(N)nc4)nc12)CCN3
IC50 (second compound 0.00316 µM): > 10 µM | IC50 (second compound 0.01 µM): > 10 µM | IC50 (second compound 0.0316 µM): > 10 µM | IC50 (second compound 0.1 µM): < 0.0316 µM | IC50 (second compound 0.316 µM): < 0.0316 µM | IC50 (second compound 1 µM): < 0.0316 µM | viability, T/C (second compound 0.00316 µM, first compound 0.0316 µM): 102% | viability, T/C (second compound 0.00316 µM, first compound 0.1 µM): 95.9% | viability, T/C (second compound 0.00316 µM, first compound 0.316 µM): 98.6% | viability, T/C (second compound 0.00316 µM, first compound 1 µM): 94.2% | viability, T/C (second compound 0.00316 µM, first compound 3.16 µM): 108% | viability, T/C (second compound 0.00316 µM, first compound 10 µM): 117% | viability, T/C (second compound 0.01 µM, first compound 0.0316 µM): 98.1% | viability, T/C (second compound 0.01 µM, first compound 0.1 µM): 97.2% | viability, T/C (second compound 0.01 µM, first compound 0.316 µM): 96.6% | viability, T/C (second compound 0.01 µM, first compound 1 µM): 89% | viability, T/C (second compound 0.01 µM, first compound 3.16 µM): 104% | viability, T/C (second compound 0.01 µM, first compound 10 µM): 98% | viability, T/C [1]: 79.6% | viability, T/C [2]: 88.2% | viability, T/C [3]: 91.3% | viability, T/C [4]: 87.2% | viability, T/C [5]: 69.9% | viability, T/C [6]: 57.6% | viability, T/C [7]: 37.4% | viability, T/C [8]: 42.2% | viability, T/C [9]: 46.3% | viability, T/C [10]: 39% | viability, T/C [11]: 34.7% | viability, T/C [12]: 18.5% | viability, T/C [13]: 22.8% | viability, T/C [14]: 22.4% | viability, T/C [15]: 21.6% | viability, T/C [16]: 13.1% | viability, T/C [17]: 17.2% | viability, T/C [18]: 5.33% | viability, T/C [19]: 16.2% | viability, T/C [20]: 14.6% | viability, T/C [21]: 14.8% | viability, T/C [22]: 9.87% | viability, T/C [23]: 6.91% | viability, T/C [24]: 3.67%

C=CC(=O)N1CCN(c2nc(=O)n(-c3c(C)ccnc3C(C)C)c3nc(-c4c(O)cccc4F)c(F)cc23)C(C)C1 (centres undefined) + Cc1nc(NC(=O)N2CCCC2C(N)=O)sc1-c1ccnc(C(C)(C)C(F)(F)F)c1
IC50 (second compound 0.0316 µM): > 10 µM | IC50 (second compound 0.1 µM): > 10 µM | IC50 (second compound 0.316 µM): > 10 µM | IC50 (second compound 1 µM): > 10 µM | IC50 (second compound 3.16 µM): > 10 µM | IC50 (second compound 10 µM): > 10 µM | viability, T/C [1]: 106% | viability, T/C [2]: 108% | viability, T/C [3]: 102% | viability, T/C [4]: 108% | viability, T/C [5]: 110% | viability, T/C [6]: 114% | viability, T/C [7]: 108% | viability, T/C [8]: 99.8% | viability, T/C [9]: 103% | viability, T/C [10]: 109% | viability, T/C [11]: 114% | viability, T/C [12]: 99% | viability, T/C [13]: 103% | viability, T/C [14]: 102% | viability, T/C [15]: 100% | viability, T/C [16]: 115% | viability, T/C [17]: 105% | viability, T/C [18]: 98.6% | viability, T/C [19]: 126% | viability, T/C [20]: 118% | viability, T/C [21]: 102% | viability, T/C [22]: 123% | viability, T/C [23]: 122% | viability, T/C [24]: 107% | viability, T/C (second compound 3.16 µM, first compound 0.0316 µM): 110% | viability, T/C (second compound 3.16 µM, first compound 0.1 µM): 109% | viability, T/C (second compound 3.16 µM, first compound 0.316 µM): 112% | viability, T/C (second compound 3.16 µM, first compound 1 µM): 108% | viability, T/C (second compound 3.16 µM, first compound 3.16 µM): 113% | viability, T/C (second compound 3.16 µM, first compound 10 µM): 115% | viability, T/C (second compound 10 µM, first compound 0.0316 µM): 71.1% | viability, T/C (second compound 10 µM, first compound 0.1 µM): 64.5% | viability, T/C (second compound 10 µM, first compound 0.316 µM): 58.3% | viability, T/C (second compound 10 µM, first compound 1 µM): 67.5% | viability, T/C (second compound 10 µM, first compound 3.16 µM): 90.8% | viability, T/C (second compound 10 µM, first compound 10 µM): 79.1%
